Earlier results in patent US6406713B1 (priority 1987, dated 2002).

Legend:
[1] = test system: HTLV-III/LAV virus; settings: HTLV-III/LAV infected cell cultures
[2] = test system: histoplasmosis; settings: mouse, in vivo

| Molecule | protection of target cells against cytopathic effects of the virus [1] | serum and tissue distributions [2] | toxicity versus free amphotericin B preparations [2] |
| --- | --- | --- | --- |
| COC(=O)[C@H]1[C@@H]2C[C@@H](O[C@@H]3O[C@H](C)[C@@H](O)[C@H](N)[C@@H]3O)/C=C/C=C/C=C/C=C/C=C/C=C/C=C/[C@H](C)[C@@H](O)[C@@H](C)[C@H](C)OC(=O)C[C@H](O)C[C@H](O)CC[C@@H](O)[C@H](O)C[C@H](O)C[C@](O)(C[C@@H]1O)O2 [amphotericin B methyl ester] | protected target cells against the cytopathic effects of the virus |  |  |
| liposomal-amphotericin B |  | lower serum levels and higher liver and spleen concentrations | less toxic |
| C[C@@H]1[C@H](O)[C@@H](C)/C=C/C=C/C=C/C=C/C=C/C=C/C=C/[C@H](O[C@@H]2O[C@H](C)[C@@H](O)[C@H](N)[C@@H]2O)C[C@@H]2O[C@](O)(C[C@@H](O)C[C@@H](O)[C@H](O)CC[C@@H](O)C[C@@H](O)CC(=O)O[C@H]1C)C[C@H](O)[C@H]2C(=O)O [amphotericin B] | protected target cells against the cytopathic effects of the virus |  |  |
